In ChEMBL document CHEMBL1201862, “PubChem BioAssay data set” (2004):
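Assay format: 96-well plates, 48-hour exposure. Abbreviation: GI50, concentration required for 50% inhibition of growth.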 Activity calls are given as the source filed them. Rule as the data show it: active = GI50 up to about 1.1 µM and inactive = higher.

Tests used:
Assay in all cases: inhibition of tumour cell growth, NCI panel, 48 h
786-0 = test system: 786-0
A498 = test system: A498
A549 = test system: A549
ACHN = test system: ACHN
BT-549 = test system: BT-549
CAKI-1 = test system: CAKI-1
COLO 205 = test system: COLO 205
DU-145 = test system: DU-145
EKVX = test system: EKVX
HCC 2998 = test system: HCC 2998
HCT-116 = test system: HCT-116
HCT-15 = test system: HCT-15
HL-60 = test system: HL-60
HOP-62 = test system: HOP-62
HOP-92 = test system: HOP-92
HT-29 = test system: HT-29
Hs-578T = test system: Hs-578T
IGROV-1 = test system: IGROV-1
K562 = test system: K562
KM12 = test system: KM12
LOX IMVI = test system: LOX IMVI
M14 = test system: M14
MCF7 = test system: MCF7
MDA-MB-231 = test system: MDA-MB-231
MDA-MB-435 = test system: MDA-MB-435
MDA-N = test system: MDA-N
MOLT-4 = test system: MOLT-4
Malme-3M = test system: Malme-3M
NCI-H226 = test system: NCI-H226
NCI-H23 = test system: NCI-H23
NCI-H460 = test system: NCI-H460
NCI-H522 = test system: NCI-H522
NCI/ADR-RES = test system: NCI/ADR-RES
OVCAR-3 = test system: OVCAR-3
OVCAR-4 = test system: OVCAR-4
OVCAR-5 = test system: OVCAR-5
OVCAR-8 = test system: OVCAR-8
PC-3 = test system: PC-3
RPMI-8226 = test system: RPMI-8226
RXF 393 = test system: RXF 393
SF-268 = test system: SF-268
SF-295 = test system: SF-295
SF-539 = test system: SF-539
SK-MEL-28 = test system: SK-MEL-28
SK-MEL-2 = test system: SK-MEL-2
SK-MEL-5 = test system: SK-MEL-5
SN12C = test system: SN12C
SNB-19 = test system: SNB-19
SR = test system: SR
SW-620 = test system: SW-620
TK-10 = test system: TK-10
U-251 = test system: U-251
UACC-257 = test system: UACC-257
UACC-62 = test system: UACC-62
UO-31 = test system: UO-31

## COc1ccccc1-c1c(C#N)c(N)[nH]c(=S)c1C#N
786-0
  GI50: 50.7 µM (inactive)
A498
  GI50: 86.1 µM (inactive)
A549
  GI50: 83 µM (inactive)
ACHN
  GI50: > 100 µM (inactive)
BT-549
  GI50: 47.9 µM (inactive)
CAKI-1
  GI50: > 100 µM (inactive)
COLO 205
  GI50: 53.6 µM (inactive)
DU-145
  GI50: > 100 µM (inactive)
EKVX
  GI50: 43 µM (inactive)
HCC 2998
  GI50: 74.3 µM (inactive)
HCT-116
  GI50: 41.2 µM (inactive)
HCT-15
  GI50: > 100 µM
HL-60
  GI50: 34.7 µM (inactive)
HOP-62
  GI50: > 100 µM (inactive)
HOP-92
  GI50: 62.5 µM (inactive)
HT-29
  GI50: 65.6 µM (inactive)
Hs-578T
  GI50: 30.9 µM (inactive)
IGROV-1
  GI50: 92.3 µM (inactive)
K562
  GI50: 14.4 µM (inactive)
KM12
  GI50: 62.8 µM (inactive)
LOX IMVI
  GI50: 65.2 µM (inactive)
M14
  GI50: 78.2 µM (inactive)
MCF7
  GI50: 44.5 µM (inactive)
MDA-MB-231
  GI50: 47.6 µM (inactive)
MDA-MB-435
  GI50: 35.6 µM (inactive)
MDA-N
  GI50: 25.9 µM (inactive)
MOLT-4
  GI50: 11.5 µM (inactive)
Malme-3M
  GI50: 80.4 µM (inactive)
NCI-H226
  GI50: 31.6 µM (inactive)
NCI-H23
  GI50: > 100 µM (inactive)
NCI-H460
  GI50: 67 µM (inactive)
NCI-H522
  GI50: 23.2 µM (inactive)
NCI/ADR-RES
  GI50: > 100 µM (inactive)
OVCAR-3
  GI50: 56.1 µM (inactive)
OVCAR-4
  GI50: 57.8 µM (inactive)
OVCAR-5
  GI50: > 100 µM (inactive)
OVCAR-8
  GI50: 61.4 µM (inactive)
PC-3
  GI50: 32.1 µM (inactive)
RPMI-8226
  GI50: 20.5 µM (inactive)
RXF 393
  GI50: 34.4 µM (inactive)
SF-268
  GI50: 47.6 µM (inactive)
SF-295
  GI50: 52.8 µM (inactive)
SF-539
  GI50: > 100 µM (inactive)
SK-MEL-28
  GI50: 71.6 µM (inactive)
SK-MEL-2
  GI50: 37 µM (inactive)
SK-MEL-5
  GI50: 32.1 µM (inactive)
SN12C
  GI50: 25.4 µM (inactive)
SNB-19
  GI50: > 100 µM (inactive)
SR
  GI50: 46.5 µM (inactive)
SW-620
  GI50: 27.4 µM (inactive)
TK-10
  GI50: > 100 µM (inactive)
U-251
  GI50: 48.1 µM (inactive)
UACC-257
  GI50: > 100 µM (inactive)
UACC-62
  GI50: 55.1 µM (inactive)
UO-31
  GI50: 93.1 µM (inactive)
